Common to all, as to assay type: functional
In one assay the test system is T47D. The assay can be described thus: Antiproliferative activity against human T47D cells expressing estrogen receptor after 48 hrs by SRB assay. (In general: The SRB assay estimates cell density from bound dye.)
The nature of assay [1]: Antiproliferative activity against human MCF7/BUS cells expressing estrogen receptor after 48 hrs by SRB assay.
Another assay deals with MDA-MB-231. Description: Antiproliferative activity against estrogen receptor deficient human MDA-MB-231 cells after 48 hrs by SRB assay. The settings on record: MDA-MB-231, 48 h.
For a further assay, the system named is SK-BR-3. The assay can be described thus: Antiproliferative activity against estrogen receptor deficient human SKBR3 cells after 48 hrs by SRB assay. The settings on record: SK-BR-3, 48 h.
The subject of another assay is MCF7. The assay can be described thus: Antiproliferative activity against human MCF7 cells expressing estrogen receptor after 48 hrs by SRB assay. The settings on record: MCF7, 48 h.

What is called GI50 is the concentration giving 50% growth inhibition. Read a low GI50 as more potent growth inhibition.

As for `C[C@@H]1[C@@H]([C@@H]2O[C@H](O)[C@@]3(C)O[C@@]23C)O[C@@]2(O)C[C@H]3[C@@H](CC=C4CC=CC(=O)[C@@]43C)[C@@H]3CC[C@]1(O)[C@]32C` [JABOROSALACTOL], the GI50 in the assay on T47D is 30 µM; in assay [1] it was 18 µM; with MDA-MB-231, 19 µM; in the assay with SK-BR-3, 18 µM; with MCF7 it was 14 µM.

`CC1=C(C)C(=O)O[C@]2(C1)O[C@@]1(O)C[C@H]3[C@@H](C[C@H]4O[C@]45CC=CC(=O)[C@]35C)[C@@H]3CC[C@@](O)([C@@H]2C)[C@]31C` [JABOROSALACTONE 46]: the GI50 amounted to 3.7 µM with T47D; 2.9 µM in assay [1]; 3.5 µM in the assay on MDA-MB-231; 2.5 µM in the assay on SK-BR-3; 2.8 µM in the assay on MCF7.

With `CC1=C(C)C(=O)O[C@@H]([C@H]2CO[C@@]3(O)C[C@H]4[C@@H](C[C@H]5O[C@]56CC=CC(=O)[C@]46C)[C@@H]4CC[C@]2(O)[C@]43C)C1` [JABOROSALACTONE], the GI50 was determined as 4.1 µM in the assay on T47D; 2.8 µM in assay [1]; 3.4 µM with MDA-MB-231; 2.6 µM in the assay on SK-BR-3; 2.9 µM with MCF7.

Turning to `C[C@@H]1[C@@H]([C@@H]2O[C@H](O)[C@@]3(C)O[C@@]23C)O[C@@]2(O)C[C@H]3[C@@H](C[C@H]4O[C@]45CC=CC(=O)[C@]35C)[C@@H]3CC[C@]1(O)[C@]32C` [JABOROSALACTOL 24], the GI50 with T47D turned out to be 6.5 µM; in assay [1], 2.6 µM; with MDA-MB-231, 8.7 µM; in the assay with SK-BR-3, 2.3 µM; with MCF7 it was 3.6 µM.

In the case of `CC1=C(C)[C@H]([C@H]2O[C@@]3(O)C[C@@H]4c5c(O)cccc5[C@H](O)C[C@H]4[C@@H]4CC[C@@](O)([C@@H]2C)[C@]43C)OC1=O` [JABOROSALACTONE 45], the GI50 (in the assay with T47D; in assay [1]; with MDA-MB-231; in the assay with SK-BR-3; in the assay with MCF7) was > 100 µM throughout.

Turning to `CC1=C(C)C(=O)O[C@@H]([C@H]2CO[C@@]3(O)C[C@H]4[C@@H](C[C@H]5O[C@]56CCCC(=O)[C@]46C)[C@@H]4CC[C@]2(O)[C@]43C)C1` [JABOROSALACTONE 39], the GI50 with T47D was 38 µM; in assay [1], 29 µM; in the assay with MDA-MB-231 it was 35 µM; with SK-BR-3 it was 34 µM; in the assay on MCF7, 25 µM.

On to `CCO[C@@]12C[C@H]3[C@@H](C[C@@H](O)[C@@]4(Cl)CC=CC(=O)[C@]34C)[C@@H]3CC[C@@](O)([C@H](C)[C@@H]([C@@H]4OC(=O)C(C)=C4C)O1)[C@]32C` [12-O-ETHYLJABOROSALACTONE 42], for which the GI50 was found to be 3.9 µM in the assay on T47D; 3 µM in assay [1]; 3.7 µM with MDA-MB-231; 2.5 µM in the assay on SK-BR-3; 3 µM in the assay on MCF7.

As for `CC1=C(C)[C@]2(OC1=O)C(=O)C(C)=C1CC[C@H]3[C@@H]4C[C@H]5O[C@]56CC=CC(=O)[C@]6(C)[C@H]4C[C@@]2(O)[C@]13C` [JABOROSALACTONE 1], the GI50 in the assay with T47D amounted to 3.4 µM; in assay [1], 3.3 µM; with MDA-MB-231 it was 2.5 µM; in the assay on SK-BR-3 it was 2 µM; with MCF7, 3.2 µM.

As for `CC1=C(C)C(=O)O[C@@H]([C@](C)(O)[C@]2(O)CC[C@@]3(O)[C@@H]4C[C@H]5O[C@]56[C@@H](O)C=CC(=O)[C@]6(C)[C@H]4CC[C@]23C)C1`, the GI50 in the assay on T47D came to 2.2 µM; in assay [1] it was 1.1 µM; with MDA-MB-231 it was 2.1 µM; in the assay with SK-BR-3 it was 1.7 µM; in the assay with MCF7, 1 µM.

On to `C[C@]12CC[C@H]3C(=C1[C@H]1C[C@@]2(O)[C@](C)([C@H]2C[C@]4(C)O[C@]4(C)[C@H](O)O2)C1)C[C@@H](O)[C@@]1(O)CC=CC(=O)[C@]31C` [JABOROSALACTOL20], for which the GI50 (in the assay on T47D; in assay [1]; in the assay with MDA-MB-231; with SK-BR-3; in the assay on MCF7) was > 100 µM throughout.

As for `CC1=C(C)[C@H]([C@H]2O[C@@]3(O)C[C@H]4[C@@H](C[C@H]5O[C@]56CC=CC(=O)[C@]46C)[C@@H]4CC[C@@](O)([C@@H]2C)[C@]43C)OC1=O` [TRECHONOLIDE A], the concentration for 50% growth inhibition (GI50) in the assay on T47D was 4.3 µM; in assay [1], 3.1 µM; in the assay with MDA-MB-231, 6.3 µM; with SK-BR-3, 1.9 µM; in the assay with MCF7 it was 3.9 µM.

In the case of `CC1=C(C)[C@]2(OC1=O)[C@H](O)[C@@H](C)[C@]1(O)CC[C@H]3[C@@H]4CC=C5CC=CC(=O)[C@]5(C)[C@H]4C[C@@]2(O)[C@@]31C` [JABOROSALACTONE P], the GI50 was 61 µM with T47D; 33 µM in assay [1]; 49 µM in the assay with MDA-MB-231; 29 µM in the assay on SK-BR-3; 35 µM with MCF7.

`CCO[C@@]12C[C@H]3[C@@H](C[C@@H](O)[C@@]4(Cl)CC=CC(=O)[C@]34C)[C@@H]3CC[C@@](O)([C@H](C)[C@@H]([C@@H]4O[C@H](O)[C@@]5(C)O[C@@]45C)O1)[C@]32C`: the GI50 in the assay with T47D came out at 13 µM; in assay [1] it was 5.1 µM; with MDA-MB-231, 10 µM; in the assay with SK-BR-3, 3.4 µM; in the assay with MCF7 it was 3.9 µM.

Regarding `C[C@@H](c1cc(O)c2c(c1)CC[C@H]1[C@H]2C[C@@H]2O[C@@]23CC=CC(=O)[C@]13C)[C@@H]1C[C@@H]2O[C@@H]2[C@H](O)O1` [SALPICHROLIDE G], the GI50 came out at 14 µM in the assay on T47D; 5.7 µM in assay [1]; 14 µM with MDA-MB-231; 3.4 µM with SK-BR-3; 5.1 µM in the assay with MCF7.

For `CC1=C(C)C(=O)O[C@@H]([C@](C)(O)[C@]2(O)CC[C@@]3(O)[C@@H]4C[C@H]5O[C@]56CC=CC(=O)[C@]6(C)[C@H]4CC[C@]23C)C1` [WITHANOLIDE E], the GI50 in the assay on T47D is 0.16 µM; in assay [1], 0.42 µM; in the assay with MDA-MB-231, 0.24 µM; in the assay on SK-BR-3, 0.71 µM; with MCF7 it was 0.31 µM.

For `CO[C@@]12C[C@@H]3c4c(O)cccc4[C@H](O)C[C@H]3[C@@H]3CC[C@@](O)([C@H](C)[C@@H]([C@@H]4OC(=O)C(C)=C4C)O1)[C@]32C`, the GI50 (with T47D; in assay [1]; in the assay on MDA-MB-231; in the assay on SK-BR-3; in the assay on MCF7) was > 100 µM throughout.

With `CC1=C(C)[C@H]([C@H]2O[C@@]3(O)C[C@H]4[C@@H](C[C@@H](O)[C@@]5(Cl)CC=CC(=O)[C@]45C)[C@@H]4CC[C@@](O)([C@@H]2C)[C@]43C)OC1=O` [JABOROSALACTONE 42], the GI50 in the assay with T47D was 3.5 µM; in assay [1] it was 2.6 µM; in the assay with MDA-MB-231, 3.2 µM; in the assay on SK-BR-3, 2.5 µM; in the assay with MCF7, 2.4 µM.

On to `CC1=C(C)[C@H]([C@H]2O[C@@]3(O)C[C@H]4[C@@H](C[C@@H](O)[C@@]5(O)CC=CC(=O)[C@]45C)[C@@H]4CC[C@@](O)([C@@H]2C)[C@]43C)OC1=O` [JABOROTETROL], for which the GI50 (in the assay on T47D; in assay [1]; with MDA-MB-231; in the assay on SK-BR-3; in the assay on MCF7) was > 100 µM throughout.

Take `CO[C@@]12C[C@H]3[C@@H](C[C@H]4O[C@]45CC=CC(=O)[C@]35C)[C@@H]3CC[C@@](O)([C@@H]([C@H]4CC(C)=C(C)C(=O)O4)CO1)[C@]32C` [12-O-METHYLJABOROSALACTONE 38]: the GI50 in the assay with T47D was found to be 3.9 µM; in assay [1] it was 2.7 µM; with MDA-MB-231, 2.8 µM; in the assay on SK-BR-3, 2 µM; in the assay with MCF7, 2.9 µM.

On to `O=c1[nH]cc(F)c(=O)[nH]1` [FLUOROURACIL], for which the GI50 in the assay with T47D came to 47 µM; in assay [1], 6.2 µM; in the assay with MDA-MB-231, 54 µM; in the assay with SK-BR-3, 3 µM; with MCF7 it was 8.3 µM.

Take `C[C@@H](C1=CC(=O)[C@H]2[C@@H]3C[C@H]4O[C@]45CC=CC(=O)[C@]5(C)[C@H]3CC[C@]12C)C1C[C@]2(C)O[C@]2(C)[C@H](O)O1` (stereo not given in full) [SALPICHROLIDE D]: the GI50 in the assay on T47D worked out at 17 µM; in assay [1] it was 13 µM; in the assay with MDA-MB-231 it was 21 µM; in the assay with SK-BR-3 it was 21 µM; in the assay on MCF7, 22 µM.

For the molecule `CC[C@@]1(O)C(=O)OCc2c1cc1n(c2=O)Cc2cc3ccccc3nc2-1` [CAMPTOTHECIN], the GI50 with T47D is 2 µM; in assay [1] it was 0.21 µM; in the assay with MDA-MB-231 it was 1.3 µM; in the assay on SK-BR-3 it was 0.15 µM; in the assay on MCF7 it was 0.28 µM.

Source of the values: ChEMBL document CHEMBL1157815, “Antiproliferative activity of withanolides against human breast cancer cell lines” (2010).
